Laboratory results from US10435388B2, “Selective inhibitors of clinically important mutants of the EGFR tyrosine kinase” (CS PHARMATECH LIMITED, priority 2016, dated 2019).
“And” between values parts separate entries of the source, which are not always exact repeats. Equal entries are not always repeated.

What was measured:
EGFR_d746-750 = EGFR_d746-750 (Homo sapiens, UniProt P00533, DEL746-750); experiment: Enzyme assay, IC50 for single mutant EGFR_d746-750 (Caliper); type: biochemical; conditions: enzyme phosphorylation assay
Sequence of EGFR_d746-750 (P00533 with tags, fused parts or gaps DEL746-750): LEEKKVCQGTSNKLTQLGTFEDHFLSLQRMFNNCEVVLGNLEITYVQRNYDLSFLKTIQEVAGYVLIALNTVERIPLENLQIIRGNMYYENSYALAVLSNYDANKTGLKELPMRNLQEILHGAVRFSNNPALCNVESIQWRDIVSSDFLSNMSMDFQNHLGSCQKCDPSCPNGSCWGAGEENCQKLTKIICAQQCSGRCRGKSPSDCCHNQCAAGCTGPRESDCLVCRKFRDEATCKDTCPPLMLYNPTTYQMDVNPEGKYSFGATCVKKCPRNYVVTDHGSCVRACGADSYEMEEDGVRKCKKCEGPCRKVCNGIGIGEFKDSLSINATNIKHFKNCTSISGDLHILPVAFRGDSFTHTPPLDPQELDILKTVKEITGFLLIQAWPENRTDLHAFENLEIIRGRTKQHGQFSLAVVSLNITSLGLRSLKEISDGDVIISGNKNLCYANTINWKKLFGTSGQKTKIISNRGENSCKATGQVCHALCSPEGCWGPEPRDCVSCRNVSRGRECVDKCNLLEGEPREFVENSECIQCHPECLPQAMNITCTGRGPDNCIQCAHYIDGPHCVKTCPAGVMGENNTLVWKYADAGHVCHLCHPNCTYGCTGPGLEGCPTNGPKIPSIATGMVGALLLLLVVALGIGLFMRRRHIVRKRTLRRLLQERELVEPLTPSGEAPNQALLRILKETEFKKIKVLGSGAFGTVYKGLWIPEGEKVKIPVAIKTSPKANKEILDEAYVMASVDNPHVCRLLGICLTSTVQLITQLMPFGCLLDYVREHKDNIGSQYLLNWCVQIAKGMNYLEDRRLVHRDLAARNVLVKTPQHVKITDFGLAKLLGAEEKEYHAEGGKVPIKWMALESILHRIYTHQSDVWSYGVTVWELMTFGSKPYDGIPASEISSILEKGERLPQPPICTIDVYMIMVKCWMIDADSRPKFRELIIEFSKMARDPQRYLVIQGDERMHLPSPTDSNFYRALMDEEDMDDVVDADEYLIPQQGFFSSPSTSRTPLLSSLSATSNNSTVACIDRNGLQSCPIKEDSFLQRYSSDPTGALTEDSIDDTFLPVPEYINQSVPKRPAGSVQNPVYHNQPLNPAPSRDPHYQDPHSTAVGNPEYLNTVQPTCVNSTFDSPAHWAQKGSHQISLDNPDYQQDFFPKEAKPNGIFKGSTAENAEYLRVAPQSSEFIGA

INSR = biological target: T1, INSR (Homo sapiens, UniProt P06213); experiment: INSR inhibition assay (Caliper EZ Reader); type: biochemical; conditions: enzyme assay
T1 construct: purchased CARNA BIOSCIENCE 08-142
T1 sequence (P06213 989-1382 limits assumed): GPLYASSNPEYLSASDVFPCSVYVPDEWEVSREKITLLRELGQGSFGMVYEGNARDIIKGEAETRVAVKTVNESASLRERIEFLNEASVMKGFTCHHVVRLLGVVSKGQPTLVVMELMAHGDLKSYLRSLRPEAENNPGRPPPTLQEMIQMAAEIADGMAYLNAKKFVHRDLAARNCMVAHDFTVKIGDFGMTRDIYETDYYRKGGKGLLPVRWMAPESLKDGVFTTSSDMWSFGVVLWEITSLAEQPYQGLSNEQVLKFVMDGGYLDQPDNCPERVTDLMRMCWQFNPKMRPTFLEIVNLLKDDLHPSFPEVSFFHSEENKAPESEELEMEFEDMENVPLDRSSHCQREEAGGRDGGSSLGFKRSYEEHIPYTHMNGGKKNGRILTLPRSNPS

[1] = test system: LoVo cells (unmutated EGFR wild type); experiment: LoVo growth inhibition assay (cell proliferation), Method A; type: cell-based; conditions: cellular proliferation, 72 h, CellTiter-Glo (Table 1), read-out: LoVo IC50 (nM) WT
Description: Cell Proliferation Assays—Method A
LoVo Growth Inhibition Assay (Cell Proliferation)
The rest of the procedure was carried out in the same manner as described for the H1975 cells.

IC50 (EGFR_d746-750): 1.1 nM
IC50 (INSR): 49.5 nM and 72.2 nM
IC50 [1]: 3250 nM
Compound: C=CC(=O)Nc1cc(Nc2nccc(-c3c[nH]c4ccccc34)n2)c(OC)cc1N(C)CCN(C)C [AZD-5104]
